{"source": "patent US6958141B2", "about": "“Rhenium and technetium complexes containing a hypoxia-localizing moiety” (Bracco International B.V., priority 1991, dated 2005)", "key": {"[1]": {"tested_on": "Bovine brain microvessel endothelial cells", "test": "Ability to cross endothelial monolayers (permeability index)", "type": "in vitro ADME", "settings": "permeability index from PSe, endothelial monolayer, compared with ^3H-water and ^14C-sucrose, first 10 minutes, 37° C.", "quoted_text": "The model consists of a cultured monolayer of bovine brain endothelial cells, which form tight intercellular junctions. […] The rate of transit is compared with ^3H2O (a highly permeable tracer) and ^14C-sucrose (a non-permeable tracer).\nBovine brain microvessel endothelial cells were isolated using a modification of the Audus-Borchardt method (K. L. Audus et al., Ann. New York Acad. Sci., 1988; 9-18). […]\nThis system was placed into a 37° C., 5% CO2 incubator which contains an orbiting tissue culture plate shaker for agitation and 10 μL samples, from both inside (donor) and outside (acceptor) compartments, were taken simultaneously from a set of 4 Anocell inserts. These samples were counted first in a Gamma counter then, after 72 hours, in a scintillation counter with dual channel capabilities. The fraction of radioactivity transported from the donor to the acceptor wells at each time point over the first 10 minutes of the study was calculated. The average percent of radioactivity transported was plotted vs. time and the slope was estimated by linear regression analysis. […] The permeability index (Pi) is calculated using the PSe for each agent as follows: [formula]"}, "[2]": {"tested_on": "Isolated Perfused Rat Heart", "test": "Isolated perfused heart studies (Langendorff), retention of tracer", "set-up": "species or system male Sprague Dawley rats", "settings": "radioactivity 40 minutes after end of 20 minute infusion divided by peak, n=4", "method": "Hearts were excised from male Sprague Dawley rats (275-325 g) and were perfused retrogradely using the Langendorff method (O. Langendorff, Pfleugers Arch. ges. Physiol, 61, 291, […]) with modifications described previously (W. Rumsey, D. F. Wilson and M. Erecinska, Am. J. Physiol., 253 (Heart Circ. Physiol. 22): H1098, 1987) in the isolated state at 37° C. with Krebs-Henseleit buffer. The perfusate contained [in mM] NaCl, KCl [4.7], CaCl2 [1.8], Na2EDTA [0.5], KH2PO4 [1.2], MgSO4 [1.2], NaHCO3 [25], glucose, pyruvate [0.2], and insulin (12 IU/L) and was equilibrated with O2:CO2 (95:5) (global normoxia) or N2:CO2 (95:5) (global hypoxia). The hearts were paced continuously at 5 Hz. […]\nFor determination of oxygen consumption, a cannula was placed in the right ventricle via the pulmonary artery. A pump removed a small fraction of the coronary effluent at 1 mL/min., and its oxygen concentration was monitored continuously by an in-line Clark-type electrode. […] Coronary flow was measured by collecting the effluent from the right and left pulmonary arteries in a 10 mL graduated cylinder. Oxygen consumption was calculated from the product of the influent-effluent oxygen concentration difference and the coronary flow. During perfusion with hypoxic medium, only the effluent oxygen concentration was recorded. […]"}, "[3]": {"tested_on": "Calcium-tolerant ventricular myocytes", "test": "Isolated cardiac myocyte studies, retention of radioactivity", "type": "cell-based, male Sprague Dawley rats", "settings": "for Oil: dibutyl phthalate layer; for Oil / PCA Pellet / Cell Pellet: means ±S.E.M.; for PCA Pellet: perchloric acid-precipitated pellet; for Cell Pellet: whole cells passed through dibutyl phthalate; for percentage of activity associated with the protein/membrane fragments: cells disrupted by freezing and thawing (3×)", "text": "Calcium-tolerant ventricular myocytes were isolated from hearts of male Sprague Dawley rats (200 g) according to the procedure of Wittenberg and Robinson (B. A. Wittenberg and T. F. Robinson, Cell Tissue Res., 216: 231, 1981) with modifications described previously (W. Rumsey, C. Schlosser, E. M. Nuutinen, M. Robiolio and D. F. Wilson, J. Biol. Chem., 265 (26): 15392, 1990). Cells were used immediately following morphological analysis (using a hemocytometer) of viability and were maintained at 37° C. during the experiments. The number of quiescent, rod shaped cells ranged from 70-90% within a total population of 5-9×10^6 cells.\nThe isolated myocytes were maintained in either a normoxic, hypoxic or anoxic state. Hypoxia was induced by providing an atmosphere of argon atop of the cells and sealing the flask during the incubation period. Glucose oxidase plus catalase (5/5 mg) was added to argon treated cells to provide anoxia. Cells were suspended (6.5-7.5×10^4 cells/ml) in isolation media and aliquots were added to incubation vials maintained at 37° C.\nAfter incubation with a test compound, myocytes were deproteinated with 1% ice-cold perchloric acid and centrifuged at 12,000 rpm for 30 sec. The supernatent was separated from the pellet and each counted using a LKB 1282 gamma counter. Alternatively, myocytes were separated from the suspending media by passing the cells through 99% dibutyl phthalate by centrifugation at 12,000 rpm for 30 sec. The three phases were separated and counted as described above. Results for the Tc-99m complex of the compound in Example 1 are given below:\nValues represent means ±S.E.M. for the number of experiments noted in the parentheses. The values are the percent of total radioactivity represented by each case. PCA pellet=perchloric acid-precipitated pellet which represents the activity associated with proteins/membranes. Cell pellet=whole cells passed through a layer of dibutyl phthalate (oil).\nSeveral Tc-99m complexes were examined in isolated myocytes using the protocol described above. The percentage of activity retained in the cell pellet was determined under anoxic and normoxic states."}, "Mitochondria": {"tested_on": "Mitochondria", "test": "Studies in isolated mitochondria", "set-up": "species or system male Sprague Dawley rats", "settings": "37° C. for 60 minutes, means ±S.E.M.", "method": "Mitochondria were prepared from hearts of male Sprague Dawley rats (200 g) using the isolation procedure of Fuller et al., (E. O. Fuller, D. I. Golderg, J. W. Starnes, M. Sacks, and M. J. Delavoria-Papadopoulos, Mol. Cell. Cardiol., 17:71, 1985). The heart was excised from anesthetized rats and trimmed free of the atria and great vessels. The ventricles were minced in ice-cold isolation medium (0.225 M mannitol, 75 mM sucrose, 1.0 mM EGTA and 10 mM MOPS, pH 7.4), briefly exposed to the proteolytic enzyme preparation, Nagase (Enzyme Development Corp., New York, N.Y.), and homogenized with a polytron. The mitochondria were separated from the remainder of the broken cells using density gradient centrifugation.\nThree nitroimidazole compounds were incubated at 37° C. for 60 minutes in isolated mitochodria. Hypoxia and anoxia were induced as outlined in Example 12.\nValues are given in percent of total radioactivity within an aliquot and represent means ±S.E.M. Compounds were tested using the same preparation of mitochondria."}, "[4]": {"settings": "Anoxia (Glucose Oxidase) (n = 4)"}, "[5]": {"settings": "isolated myocytes, several Tc-99m complexes"}, "[6]": {"settings": "separate study, number of experiments in parentheses"}}, "data": [{"substance": "[^99mTc]Oxo[[3,3,9,9-tetramethyl-1-(2-nitro-1H-imidazo-1-yl)-4,8-diazaundecane-2,10-dione dioximato]-(3-)-N,N′,N″,N′″]technetium(V) [^99mTc complex from ligand in Ex. 1]", "values": [{"measurement": "Pi", "setting": "[1]", "value": 63.2}, {"measurement": "% Retention of Tracer in the Isolated Perfused Rat Heart, Hypoxia", "setting": "[2]; N2:CO2 (95:5)", "value": "65.3 ± 3", "unit": "%"}, {"measurement": "% Retention of Tracer in the Isolated Perfused Rat Heart, Normoxia", "setting": "[2]; O2:CO2 (95:5)", "value": "33.5 ± 2.5", "unit": "%"}, {"measurement": "Anoxia/normoxia", "setting": "[3]", "value": 2.7}, {"measurement": "Anoxia/normoxia ratio", "setting": "[3]", "value": 2.3}, {"measurement": "Hypoxia/normoxia", "setting": "[3]", "value": 1.7}, {"measurement": "Oil", "setting": "[3]; [4]", "value": "9.0 ± 2.6% of total radioactivity"}, {"measurement": "PCA Pellet", "setting": "[3]; [4]", "value": "55.5 ± 5.8% of total radioactivity"}, {"measurement": "Cell Pellet", "setting": "[3]; [4]", "value": "48.8 ± 4.2% of total radioactivity"}, {"measurement": "Oil", "setting": "[3]; Hypoxia (Argon) (n = 4)", "value": "20.1 ± 5.3% of total radioactivity"}, {"measurement": "PCA Pellet", "setting": "[3]; Hypoxia (Argon) (n = 4)", "value": "48.5 ± 3.4% of total radioactivity"}, {"measurement": "Cell Pellet", "setting": "[3]; Hypoxia (Argon) (n = 4)", "value": "36.9 ± 8.8% of total radioactivity"}, {"measurement": "Oil", "setting": "[3]; Normoxia (n = 5)", "value": "22.8 ± 2.2% of total radioactivity"}, {"measurement": "PCA Pellet", "setting": "[3]; Normoxia (n = 5)", "value": "40.5 ± 2.7% of total radioactivity"}, {"measurement": "Cell Pellet", "setting": "[3]; Normoxia (n = 5)", "value": "23.2 ± 3.7% of total radioactivity"}, {"measurement": "percentage of activity associated with the protein/membrane fragments", "setting": "[3]; anoxic (glucose oxidase), n=3", "value": "25.3±2.5", "unit": "%"}, {"measurement": "percentage of activity associated with the protein/membrane fragments", "setting": "[3]; normoxic, n=3", "value": "23.3±0.8", "unit": "%"}, {"measurement": "% in Cell Pellet, Anoxia", "setting": "[3]; [5]", "value": "53.0 ± 2.2", "unit": "%"}, {"measurement": "% in Cell Pellet, Normoxia", "setting": "[3]; [5]", "value": "24.1 ± 2.3", "unit": "%"}, {"measurement": "effect of FCCP (uncoupler) on retention", "setting": "[3]; normoxic cells", "value": "had no effect on the retention"}, {"measurement": "effect of cyanide on retention", "setting": "[3]; normoxic cells, n=3", "value": "had no effect on retention in normoxic cells"}, {"measurement": "uptake in isolated myocytes, Anoxia", "setting": "[3]; [6]", "value": "48 ± 6 (3)"}, {"measurement": "uptake in isolated myocytes, Hypoxia", "setting": "[3]; [6]", "value": "30 ± 7 (3)"}, {"measurement": "uptake in isolated myocytes, Normoxia", "setting": "[3]; [6]", "value": "18 ± 1 (3)"}, {"measurement": "percentage of radioactivity associated with the mitochondria, Hypoxia", "setting": "Mitochondria", "value": "39.2 ± 1.0% of total radioactivity within an aliquot"}, {"measurement": "percentage of radioactivity associated with the mitochondria, Normoxia", "setting": "Mitochondria", "value": "27.8 ± 1.2% of total radioactivity within an aliquot"}, {"measurement": "Hypoxia/normoxia", "setting": "Mitochondria; radioactivity associated with mitochondria", "value": "1.4 ± 0.1"}]}]}
